Source: patent US20220125051A1, “PRE-HARVEST DESICCATION METHOD” (SYNGENTA CROP PROTECTION AG, priority 2019, published 2022)

Legend:
Assay in all cases: Post-emergence efficacy, Method A
Format in all cases: in vivo
[1] = test system: Amaranthus palmeri (AMAPA); conditions: Application rate 500 g/Ha, evaluated after 13 days, 100=total damage to plant, 0=no damage to plant; for pest or weed control at 500 g/ha: Amaranthus palmeri, post-emergence, 312 h, read-out: Control of weed species after post-emergence application, AMAPA
Protocol: (§1) Seeds of a variety of test species were sown in standard soil in pots. After cultivation for 14 days (post-emergence) under controlled conditions in a glasshouse (at 24/16° C., day/night; 14 hours light; 65% humidity), the plants were sprayed with an aqueous spray solution derived from the dissolution of the technical active ingredient formula (I) in a small amount of acetone and a special solvent and emulsifier mixture referred to as IF50 (11.12% Emulsogen EL360 TM+44.44% N-methylpyrrolidone+44.44% Dowanol DPM glycol ether), to create a 50 g/I solution which was then diluted to required concentration using 0.25% or 1% Empicol ESC70 (Sodium lauryl ether sulphate)+1% ammonium sulphate as diluent. The test plants were then grown in a glasshouse under controlled conditions (at 24/16° C., day/night; 14 hours light; 65% humidity) and watered twice daily. After 13 days the test was evaluated (100=total damage to plant; 0=no damage to plant).
(§2) Ipomoea hederacea (IPOHE), Euphorbia heterophylla (EPHHL), Chenopodium album (CHEAL), Amaranthus palmeri (AMAPA), Lolium perenne (LOLPE), Digitaria sanguinalis (DIGSA), Eleusine indica (ELEIN), Echinochloa crus-galli (ECHCG), Setaria faberi (SETFA)

[2] = test system: Chenopodium album (CHEAL); conditions: Application rate 500 g/Ha, evaluated after 13 days, 100=total damage to plant, 0=no damage to plant; for pest or weed control at 500 g/ha: Chenopodium album, post-emergence, 312 h, read-out: Control of weed species after post-emergence application, CHEAL
Protocol: as §1, §2

[3] = test system: Digitaria sanguinalis (DIGSA); conditions: Application rate 500 g/Ha, evaluated after 13 days, 100=total damage to plant, 0=no damage to plant; for pest or weed control at 500 g/ha: Digitaria sanguinalis, post-emergence, 312 h, read-out: Control of weed species after post-emergence application, DIGSA
Protocol: as §1, §2

[4] = test system: Echinochloa crus-galli (ECHCG); conditions: Application rate 500 g/Ha, evaluated after 13 days, 100=total damage to plant, 0=no damage to plant; for pest or weed control at 500 g/ha: Echinochloa crus-galli, post-emergence, 312 h, read-out: Control of weed species after post-emergence application, ECHCG
Protocol: as §1, §2

Eleusine indica (ELEIN) = conditions: Application rate 500 g/Ha, evaluated after 13 days, 100=total damage to plant, 0=no damage to plant; for pest or weed control at 500 g/ha: Eleusine indica, post-emergence, 312 h, read-out: Control of weed species after post-emergence application, ELEIN
Protocol: as §1, §2

[5] = test system: Euphorbia heterophylla (EPHHL); conditions: Application rate 500 g/Ha, evaluated after 13 days, 100=total damage to plant, 0=no damage to plant; for pest or weed control at 500 g/ha: Euphorbia heterophylla, post-emergence, 312 h, read-out: Control of weed species after post-emergence application, EPHHL
Protocol: as §1, §2

[6] = test system: Ipomoea hederacea (IPOHE); conditions: Application rate 500 g/Ha, evaluated after 13 days, 100=total damage to plant, 0=no damage to plant; for pest or weed control at 500 g/ha: Ipomoea hederacea, post-emergence, 312 h, read-out: Control of weed species after post-emergence application, IPOHE
Protocol: as §1, §2

Lolium perenne (LOLPE) = conditions: Application rate 500 g/Ha, evaluated after 13 days, 100=total damage to plant, 0=no damage to plant; for pest or weed control at 500 g/ha: Lolium perenne, post-emergence, 312 h, read-out: Control of weed species after post-emergence application, LOLPE
Protocol: as §1, §2

Setaria faberi (SETFA) = conditions: Application rate 500 g/Ha, evaluated after 13 days, 100=total damage to plant, 0=no damage to plant; for pest or weed control at 500 g/ha: Setaria faberi, post-emergence, 312 h, read-out: Control of weed species after post-emergence application, SETFA
Protocol: as §1, §2

| SMILES | pest or weed control at 500 g/ha [1] [%] | pest or weed control at 500 g/ha [2] [%] | pest or weed control at 500 g/ha [3] [%] | pest or weed control at 500 g/ha [4] [%] | pest or weed control at 500 g/ha (Eleusine indica (ELEIN)) [%] | pest or weed control at 500 g/ha [5] [%] | pest or weed control at 500 g/ha [6] [%] | pest or weed control at 500 g/ha (Lolium perenne (LOLPE)) [%] | pest or weed control at 500 g/ha (Setaria faberi (SETFA)) [%] | Control of weed species after post-emergence application, AMAPA [1] | Control of weed species after post-emergence application, CHEAL [2] | Control of weed species after post-emergence application, DIGSA [3] | Control of weed species after post-emergence application, ECHCG [4] | Control of weed species after post-emergence application, ELEIN (Eleusine indica (ELEIN)) | Control of weed species after post-emergence application, EPHHL [5] | Control of weed species after post-emergence application, IPOHE [6] | Control of weed species after post-emergence application, LOLPE (Lolium perenne (LOLPE)) | Control of weed species after post-emergence application, SETFA (Setaria faberi (SETFA)) |
| --- | --- | --- | --- | --- | --- | --- | --- | --- | --- | --- | --- | --- | --- | --- | --- | --- | --- | --- |
| CC(CC(=O)O)[n+]1ccc(-c2ncccn2)cn1 (stereo not drawn) [Compound A40, 3-(4-pyrimidin-2-ylpyridazin-1-ium-1-yl)butanoic acid 2,2,2-trifluoroacetate] | 90 | 70 | 90 | 90 | 90 | 90 | 100 | 90 | 100 | – | – | – | – | – | – | – | – | – |
| O=C(O)CC[n+]1ccc(-c2cnc(C(F)(F)F)cn2)cn1 [Compound A121] | 100 | 80 | 40 | 40 | 20 | 80 | 20 | 30 | 30 | – | – | – | – | – | – | – | – | – |
| Cc1cncc(-c2cc[n+](CCS(=O)(=O)[O-])nc2)n1 [Compound A83] | 90 | 80 | 100 | 50 | 100 | 90 | 40 | 70 | 90 | – | – | – | – | – | – | – | – | – |
| COc1ccc(-c2cc[n+](CCCS(=O)(=O)[O-])nc2)nn1 [Compound A115] | 100 | 100 | 30 | 50 | 30 | 30 | 40 | 30 | 60 | – | – | – | – | – | – | – | – | – |
| O=S(=O)([O-])CC[n+]1ccc(-c2cnc(C(F)(F)F)cn2)cn1 [Compound A112] | 100 | 100 | 40 | 40 | 50 | 80 | 40 | 40 | 70 | – | – | – | – | – | – | – | – | – |
| O=C([O-])CC[n+]1ccc(-c2cccc(C(F)(F)F)n2)cn1 [Compound A73] | 40 | 30 | 30 | 60 | 60 | 60 | 30 | 40 | 60 | – | – | – | – | – | – | – | – | – |
| COc1cc(C)nc(-c2cc[n+](CCS(=O)(=O)O)nc2)n1 [Compound A94] | – | – | – | – | – | – | – | – | – | 70 | 90 | 30 | 30 | 20 | 40 | 30 | 20 | 40 |
| O=S(=O)([O-])CC[n+]1ccc(-c2ncc(C(F)(F)F)cn2)cn1 [Compound A24] | 90 | 70 | 40 | 60 | 40 | 80 | 70 | 60 | 70 | – | – | – | – | – | – | – | – | – |
| Cc1cc(Cl)cnc1-c1cc[n+](CCCS(=O)(=O)[O-])nc1 [Compound A102] | 20 | 50 | 10 | 10 | 10 | 20 | 0 | 10 | 10 | – | – | – | – | – | – | – | – | – |
| O=C(O)c1ccnc(-c2cc[n+](CCCS(=O)(=O)[O-])nc2)n1 [Compound A146] | – | – | – | – | – | – | – | – | – | 90 | 40 | 80 | 90 | 80 | 50 | 30 | 50 | 100 |
| Cc1cc(=O)[nH]c(-c2cc[n+](CCS(=O)(=O)[O-])nc2)n1 [Compound A95] | 30 | 40 | 40 | 50 | 30 | 40 | 30 | 20 | 50 | – | – | – | – | – | – | – | – | – |
| O=C(O)CC[n+]1ccc(-c2ncccc2C(F)(F)F)cn1 [Compound A128] | 30 | 10 | 30 | 30 | 50 | 0 | 0 | 40 | 30 | – | – | – | – | – | – | – | – | – |
| O=C(O)CC[n+]1ccc(-c2ccc(C(F)(F)F)nn2)cn1 [Compound A126] | 100 | 80 | 80 | 80 | 90 | 100 | 30 | 70 | 100 | – | – | – | – | – | – | – | – | – |
| Cc1cc(F)cnc1-c1cc[n+](CCC(=O)O)nc1 [Compound A151] | 20 | 20 | 20 | 20 | 20 | 40 | 10 | 10 | 20 | – | – | – | – | – | – | – | – | – |
